From US4748175A, “Pyrimido[5,4-B][1,4]oxazine derivatives and pharmaceutical compositions containing them” (priority 1985, dated 1988)
Where a name gives a salt, the structure may show the parent alone. Read-outs that look alike come from different tables or passages of the source.

Legend:
patients = conditions: cited from earlier work
[1] = tested on: open-chest, anaesthetized cats; experiment: MCF-increasing effect in open-chest, anaesthetized cats (strain gauge arch on left ventricle); type: in vivo, cat; conditions: for change in vivo at 5 mg/kg: Felis catus, iv, 5 mg/kg i.v., open-chest anaesthetized cats, read-out: Increase in MCF as % of the initial value
Experimental: (A) Investigation on anaesthetized cats
The animals were intravenously (i.v.) anaesthetized by 30 mg/kg of pentobarbital-sodium. After arranging the artificial respiration, the chest and pericardium were opened. A strain gauge arch was sutured onto the epicardial surface of the left ventricle [J. Pharm. Exp. Ther. 90, 26 (1947)]. The blood pressure was measured by a catheter inserted to the femoral artery and joined to a P 23 Db pressure transducer and electromanometer. The test compounds were administered either i.v. through a femoral vein cannule, or intraduodenally (i.d.) through the duodenum cannule. At the beginning of the experiment, 0.2 μg/kg of isoproterenol (IS) was i.v. given as an internal standard for checking the myocardial reactivity. Namely, the value of the peak MCF response can also be altered according to the individual animals in the case of each positive inotropic agent. Thus, IS was not used as a real reference drug.
The MCF responses were expressed in the percentage changes of the initial value: the effect on MCF of 5 mg/kg i.v. of the test compound was compared to that of 0.2 μg/kg i.v. of IS.

[2] = Acute toxicity (LD50) in rats; conditions: rat, in vivo
Text: (§1) The acute toxicity data of compound 22 are given as LD50 values in Table 2.

conscious cats = experiment: Investigation on chronically catheterized conscious cats; type: in vivo, cat; conditions: oral 0.5 to 8.0 mg/kg
Text: (C) Investigation on conscious cats
These animals were used according to either the method of Rabloczky and Mader ("Measurement of Systemic and Pulmonary Arterial Pressure in Conscious Animals", lecture on Congress of the International Union of Pharmacologists, Budapest, 1980) or to some modification thereof. The aorta and pulmonary artery were chronically catheterized for measuring both blood pressures. In the modification, the right ventricle was also catheterized for determining the dp/dtmax value.

Ca-ATP-ase = Ca-ATP-ase activity ex vivo after 5 days i.p. treatment; type: in vivo; conditions: 2 mg/kg i.p. daily for 5 days; corrected to 1 g of heart tissue
Experimental: The activity of this enzyme was measured according to Mc Namara [J. Biochem. 75, 795 (1974)].
In another experiment, compound 22 was given in a 2 mg/kg i.p. daily dose for 5 days. After taking an ex vivo sample, the enzyme activity was found as decreased by 30% (as corrected to 1 g of heart tissue).

[3] = tested on: anaesthetized open-chest dogs; experiment: Investigation on anaesthetized open-chest dogs (MCF, coronary flow, blood pressure, heart rate); type: in vivo, dog
Experimental: (B) Investigation on anaesthetized dogs
The animals were i.v. anaesthetized by 35 mg/kg of pentobarbital-sodium. After opening the chest and pericardium, the lower ascending part of the left circumflex coronary artery was prepared and fitted with an electromagnetic flow probe for measuring the blood flow in the coronary artery. A strain gauge arch was placed onto the area supplied by this coronary artery for measuring the MCF. For determining the systemic blood pressure a femoral arterial cannule, for i.v. drug administration a femoral venous cannule was used. The dp/dt value was calculated from the pressure measured by a Millar type pressure transducer introduced to the left ventricle. All parameters were registered on a Beckman R 12 8-channel dynograph.

[4] = Acute toxicity (LD50) in mice; conditions: mouse, in vivo
Text: as §1

[5] = tested on: ^45 Ca^2+ uptake into the sarcoplasma reticulum; experiment: 45Ca2+ uptake into the sarcoplasma reticulum in the presence of ATP; type: biochemical; conditions: 10^-2 M
Text: EFFECT OF COMPOUND 22 ON THE ^45 Ca^2+ UPTAKE INTO THE SARCOPLASMA RETICULUM IN THE PRESENCE OF ATP
The method of S. Harigaya [Circ. Res. 25, 761 (1969)] was used.

[6] = tested on: NADH-dichlorophenol-reductase; experiment: NADH-dichlorophenol-reductase (NADH oxydase) activity in sarcolemma preparations; type: biochemical; conditions: 10^-7 M
Experimental: (§2) Sarcolemma preparations were made according to D. M. Bers [Biochem. Biophys. Acta 555, 131 (1979)]. NADH-dichlorophenol-reductase was determined by using a Centrifi-CHEM® enzyme-analyzer. The activity of Na-K-ATP-ase was measured in 50 mM Tris-HCl (at pH 7.5). […] The activity of these enzymes was not altered by even a 10^-4 M concentration of compound 22.

Na-K-ATP-ase = biological target: T1, Na-K-ATP-ase (Homo sapiens, UniProt P05023); experiment: Na-K-ATP-ase activity in sarcolemma preparations; type: biochemical; conditions: 10^-7 M, 50 mM Tris-HCl pH 7.5
T1 construct: Sarcolemma preparations were made according to D. M. Bers; from tissue; host or cells: sarcolemma preparation (heart, from the cited Bers 1979 method and the context)
Experimental: as §2

[7] = patients suffering from chronic heart failure

For `CC(C)(C)NCC(O)c1ccc(O)c(CO)n1` (stereo not drawn) [Pirbuterol, 1-(5-hydroxy-6-hydroxymethyl-2-pyridyl)-2-tertiary-butylaminoethanol], the “observation after a longer period of oral treatment” value (patients; longer period) is listed as “addiction was observed” and the “effect during oral treatment” value (patients; oral treatment for some weeks) is listed as “favorable effect”.

Compound `CCCCOC(=O)CN1C(=O)COc2c(NCCO)nc(C)nc21` [Example 67, 8-(n-Butoxycarbonyl)methyl-4-(2-hydrocyethyl)amino-2-methyl-6,7-dihydro-8H-pyrimido[5,4-b][1,4]oxazin-7-one hydrochloride] has a change in vivo at 5 mg/kg [1] of 37%.

With `CC(C)NCC(O)c1ccc(O)c(O)c1` (stereo not drawn) [IS, isoproterenol, reference compound] the blood circulation parameters ([1]; 0.2 μg/kg i.v., cats) was “did not influence” and the MCF response ([1]; 0.2 μg/kg i.v., internal standard, cats) was “short-lasting and completely reversible”.

With `Cc1nc(NCCN2CCOCC2)c2c(n1)NC(=O)CO2` [Example 22, 2-Methyl-4-[2-(4-morpholinyl)-ethyl]-amino-6,7-dihydro-8H-pyrimido[5,4-b][1,4]oxazin-7-one dihydrochloride] the LD50 ([2]; ip, Female) was 260 mg/kg, the LD50 ([2]; ip, Male) was 315 mg/kg and the LD50 ([2]; iv, Female) was 232 mg/kg. It also gave an LD50 ([2]; iv, Male) of 253 mg/kg, an LD50 ([2]; po, Female) of 810 mg/kg and an LD50 ([2]; po, Male) of 830 mg/kg. For the same compound, the “peak increase in dp/dtmax” value (conscious cats) was “about 60%”, the change in vivo at 5 mg/kg [1] was 70% and the “Ca-ATP-ase enzyme activity decrease, ex vivo sample” value (Ca-ATP-ase) was 30%. For the same compound, the MCF increase ([3]; 1 mg/kg i.d.) was 35 to 40%, the “MCF effect relative to amrinone” value ([3]; i.d. administration) was “at least 5 times” and the LD50 ([4]; ip, Female) was 573 mg/kg. The LD50 ([4]; ip, Male) was 572 mg/kg, the LD50 ([4]; iv, Female) was 340 mg/kg and the LD50 ([4]; iv, Male) was 324 mg/kg. The LD50 ([4]; po, Female) was 1420 mg/kg and the LD50 ([4]; po, Male) was 1360 mg/kg.

`Cc1nc(N2CCOCC2)c2c(n1)N(CC(O)CO)C(=O)CO2` (stereo not drawn) [Example 57, 8-(2,3-Dihydroxypropyl)-2-methyl-4-(4-morpholinyl)-6,7-dihydro-8H-pyrimido[5,4-b][1,4]oxazin-7-one] showed a change in vivo at 5 mg/kg [1] of 45%.

`Cc1nc(NCCCN2CCOCC2)c2c(n1)NC(=O)CO2` [Example 60, 2-Methyl-4-[3-(4-morpholinyl)-1-propyl]-amino-6,7-dihydro-8H-pyrimido[5,4-b][1,4]oxazin-7-one] gave a change in vivo at 5 mg/kg [1] of 51%.

Compound `Cc1nc(Cl)c2c(n1)N(CC(O)CO)C(=O)CO2` (stereo not drawn) [Example 56] has a change in vivo at 5 mg/kg [1] of 100%.

Compound `Cc1nc(NCCO)c2c(n1)N(Cc1ccccc1)C(=O)CO2` [Example 69, 8-Benzyl-2-methyl-4-(2-hydroxyethyl)-amino-2-methyl-6,7-dihydro-8H-pyrimidino[5,4-b][1,4]oxazin-7-one] has a change in vivo at 5 mg/kg [1] of 66%.

For “1-(4-hydroxyphenyl)-3-tertiary-butylamino-2-propanol [Prenalterol]”, the cardiac performance (patients; chronic oral treatment) is listed as “not improved” and the “effect in acute cardiac insufficiency” value (patients; given intravenously, clinics) is listed as “very effective”.

For `Cn1c(=O)c2c(ncn2C)n(C)c1=O` [caffeine], the “inhibition of Ca-uptake” value [5] was ~25%.

Work on `CCOC(=O)CN1C(=O)COc2c(N)nc(C)nc21` [Example 73] yielded a change in vivo at 5 mg/kg [1] of 50%.

With `C[C@@H]1O[C@@H](O[C@H]2C[C@@H](O)[C@]3(CO)[C@H]4[C@H](O)C[C@]5(C)[C@@H](C6=CC(=O)OC6)CC[C@]5(O)[C@@H]4CC[C@]3(O)C2)[C@H](O)[C@H](O)[C@H]1O` [Ouabain] the indophenol-reductase inhibition [6] was “slightly” and the Na-K-ATP-ase activity (Na-K-ATP-ase) was “strongly inhibited”.

In the case of `CCOC(=O)CN1C(=O)COc2c(NCCO)nc(C)nc21` [Example 37], the change in vivo at 5 mg/kg [1] is reported as 55.5%, the “positive inotropic action after i.d. administration” value ([1]; i.d., dose of both 20 mg/kg and 5 mg/kg) is reported as “strong positive inotropic action” and the MCF increase ([3]; 0.5 mg/kg i.v., dogs) is reported as 56%. For the same compound, the coronary flow increase ([3]; 0.5 mg/kg i.v., dogs) was 34%, the “decrease in the systemic arterial blood pressure” value ([3]; 0.5 mg/kg i.v., dogs) was 10 to 15% and the tachycardia ([3]; 0.5 mg/kg i.v., dogs) was 6 to 7%. For the same compound, the MCF increase ([3]; 1 mg/kg i.v., dogs) was 46%, the coronary flow increase ([3]; 1 mg/kg i.v., dogs) was 20% and the “duration of the coronary response” value ([3]; 1 mg/kg i.v., dogs) was 10 min. The “heart rate increase (tachycardia)” value ([3]; 1 mg/kg i.v., dogs) was 13%, the “decrease in the systemic arterial blood pressure” value ([3]; 1.0 mg/kg i.v., dogs) was 20% and the “duration of the MCF increase” value ([3]; 1.0 mg/kg i.v., dogs) was 10 min. For the same compound, the “duration of the heart rate increase” value ([3]; 1.0 mg/kg i.v., dogs) was 5 min, the MCF increase ([3]; 5 mg/kg i.d., dogs) was “about 30%” and the “duration of the MCF increase” value ([3]; 5 mg/kg i.d., dogs) was 60 min.

`CC(=O)CN1C(=O)COc2c(NCCO)nc(C)nc21` [Example 29, 4-(2-Hydroxyethyl)-amino-2-methyl-8-(2-oxopropyl)-6,7-dihydro-8H-pyrimido[5,4-b][1,4]oxazine-7-one] showed a change in vivo at 5 mg/kg [1] of 40%.

In the case of `COc1cc([S+](C)[O-])ccc1-c1nc2ncccc2[nH]1` (stereo not drawn) [Sulmazole, 2-(2-methoxy-4-methylsulfinylphenyl)-1H-imidazo[4,5-b]pyridine], the side-effects (patients; clinical tests) is listed as “relatively frequent side-effects”.

With `Cc1nc2c(c(N(CCO)Cc3ccccc3)n1)OCC(=O)N2` [Example 11] the change in vivo at 5 mg/kg [1] was 83%.

`Cc1nc(NCCO)c2c(n1)N(CC(=O)N1CCOCC1)C(=O)CO2` [Example 66, 4-(2-Hydroxyethyl)-amino-2-methyl-8-(4-morpholinylcarbonyl)-methyl-6,7-dihydro-8H-pyrimido[5,4-b][1,4]oxazin-7-one] gave a change in vivo at 5 mg/kg [1] of 58.3%.

In the case of `Nc1cc(-c2ccncc2)c[nH]c1=O` [amrinone, 5-amino-(3,4'-bipyridin)-6(1H)-one], the cardiac output (patients; [7]) is given as “significantly increased”, the “resistance of the peripheral vessels” value (patients; [7]) is given as “diminished” and the side-effects (patients; therapeutic use) is given as “severe side-effects appearing in the blood picture”. For the same compound, the “positive inotropic action compared with compound 22” value ([3]; 2 mg/kg i.v. amrinone versus 0.4 mg/kg i.v. compound 22, dogs) was “not more effective than that of 0.4 mg/kg of compound 22” and the “positive inotropic action after an acute myocardial ischaemia” value ([3]; anaesthetized open-chest dogs) was “significantly decreased”.

For `Cc1nc(NCC2CN(Cc3ccccc3)CCO2)c2c(n1)NC(=O)CO2` (stereo not drawn) [Example 27, 4-[(4-Benzyl-2-morpholinyl)-methyl]-amino-2-methyl-6,7-dihydro-8H-pyrimido[5,4-b][1,4]oxazin-7-one dihydrochloride dihydrate], the change in vivo at 5 mg/kg [1] was 130%, the MCF increase ([3]; 1 mg/kg i.v., dogs) was 40% and the coronary flow increase ([3]; 1 mg/kg i.v., dogs) was 20%. For the same compound, the “decrease in diastolic pressure” value ([3]; 1 mg/kg i.v., dogs) was 20%, the “decrease in the systemic systolic arterial blood pressure” value ([3]; 1 mg/kg i.v., dogs) was 10% and the “duration of the coronary response” value ([3]; 1 mg/kg i.v., dogs) was 20 min. The “half-life of the MCF effect” value ([3]; 1 mg/kg i.v., dogs) was 10 min, the “heart rate increase (tachycardia)” value ([3]; 1 mg/kg i.v., dogs) was 10% and the MCF increase ([3]; 5 mg/kg i.d., dogs) was 30%. The “duration of the MCF increase” value ([3]; 5 mg/kg i.d., dogs) was 30 min.
